System: draining lymph node cells of HLA-DR4 transgenic mice
Experiment: Murine IFN-γ ELISpot, HLA-DR4 transgenic mice primed with SseB
Settings: mouse, in vivo
Excerpt: Mice transgenic for HLA-DR1 (that is, HLA-DRA1*0101/HLA-DRB1*0101) and HLA-DR4 (that is, HLA-DRA1*0101/HLA-DRB1*0401)[24]–[26] were bred and housed in the Centre for Biological Services at the Hammersmith campus, Imperial College London, UK, in accordance with Home Office regulations and College ethics review. Both transgenic lines are maintained on a C57BL/6 background as homozygotes for knockout of murine MHC Class II H2-Aβ.[27]
HLA-DR1 or HLA-DR4 transgenic mice were primed, by subcutaneous injection into the footpad, with 25 μg of recombinant SseB protein administered as a 1 : 1 emulsion with TiterMax® Gold (CytRx Corporation, Los Angeles, CA). Ten days after priming, popliteal draining lymph nodes were harvested and stimulated, in triplicate, at 2 × 10^5 cells per well with 25 μg of SseB peptide or recombinant protein in pre-coated murine IFN-γ ELISpot plates (2BScientific, Upper Heyford, Oxfordshire, UK). Culture medium was RPMI-1640 containing 2 mM L-glutamine, 50 U/ml penicillin G, 50 μg/ml streptomycin sulphate, 50 μM β-mercaptoethanol and 10% fetal calf serum. Cells were cultured at 37° and in 5% CO2 for 72 hr before assay development using a biotinylated anti-IFN-γ antibody, a horseradish peroxidase detection antibody and TMB substrate (2BScientific). Developed plates were left to dry before spot counting using an AID ELISpot reader (Autoimmun Diagnostika GMBH). Positive epitopes for a given transgenic line were defined as those where more than half of assayed animals gave a greater number of spot-forming cells than 2 SD over the mean of the no protein/peptide control.
Fig 1 Definition of HLA-DR specific T-cell epitopes in DR1 and DR4 transgenic mice. (a) HLA-DR1 (n = 5) and (b) HLA-DR4 (n = 6) mice were footpad primed with ssEB protein in combination with TiterMax® Gold adjuvant. Draining lymph node (DLN) cells were assayed by ELISpot at day 10 for interferon-γ (IFN-γ) T-cell responses to ssEB peptides and protein. A peptide was defined as containing a T-cell epitope for DR1 or DR4 HLA molecules if more than half of the mice assayed gave a greater number of spot-forming cells than 2 SD over the mean of the no peptide/protein control. The 2 SD value for each transgenic line is shown by a dotted line.

Substance: 11: SseB overlapping library peptide, residues 101–120 (EDVIKYMRDNGILIDGMTID) [Peptide 11]
- IFN-γ ELISpot recall response / CD4 epitope in HLA-DR4 transgenic mice: CD4 epitopes detected

Substance: AVLTQLTGLISKWGEISSMIAQKTYS [Peptide 18, SseB overlapping library peptide, residues 171–196]
- IFN-γ ELISpot recall response / CD4 epitope in HLA-DR4 transgenic mice: not DR4
